From patent publication US9957254B2, “Cyclohexen-1-yl-pyridin-2-yl-1h-pyrazole-4-carboxylic acid derivatives and the use thereof as soluble guanylate cyclase activators” (Novartis AG, priority 2014, dated 2018)

These molecules were tested against T1, soluble guanylate cyclase (Homo sapiens, UniProt Q02153) (assay: CHO cellular assay (cGMP production, Cisbio cGMP HTRF)). Settings: CHO K1 cells overexpressing human GUCYA3/GUCYB3 (clone 8E10), 1 mM IBMX, 20 uM ODQ, 1 h room temperature, listed 0.5 nM means actual EC50 ≤0.5 nM (quantification limit).
T1 construct: expressed in transfected cells
T1 sequence (Q02108 whole entry partner): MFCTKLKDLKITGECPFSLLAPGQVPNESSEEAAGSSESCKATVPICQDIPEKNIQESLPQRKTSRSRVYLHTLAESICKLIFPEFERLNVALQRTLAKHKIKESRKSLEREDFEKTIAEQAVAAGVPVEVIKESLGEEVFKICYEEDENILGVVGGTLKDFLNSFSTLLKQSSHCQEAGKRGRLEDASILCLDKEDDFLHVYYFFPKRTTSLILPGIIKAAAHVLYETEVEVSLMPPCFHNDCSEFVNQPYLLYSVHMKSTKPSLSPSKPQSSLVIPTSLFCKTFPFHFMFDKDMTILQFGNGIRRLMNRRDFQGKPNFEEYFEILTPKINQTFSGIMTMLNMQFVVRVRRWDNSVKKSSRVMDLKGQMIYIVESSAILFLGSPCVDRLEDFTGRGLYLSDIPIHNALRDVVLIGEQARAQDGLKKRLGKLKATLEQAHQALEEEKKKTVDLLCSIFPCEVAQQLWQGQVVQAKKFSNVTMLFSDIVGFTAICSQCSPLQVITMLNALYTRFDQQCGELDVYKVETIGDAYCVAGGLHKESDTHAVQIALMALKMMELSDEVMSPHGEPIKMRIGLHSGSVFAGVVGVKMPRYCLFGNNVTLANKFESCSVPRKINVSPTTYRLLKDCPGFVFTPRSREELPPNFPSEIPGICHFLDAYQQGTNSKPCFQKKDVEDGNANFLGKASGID
T1 sequence (Q02153 whole entry): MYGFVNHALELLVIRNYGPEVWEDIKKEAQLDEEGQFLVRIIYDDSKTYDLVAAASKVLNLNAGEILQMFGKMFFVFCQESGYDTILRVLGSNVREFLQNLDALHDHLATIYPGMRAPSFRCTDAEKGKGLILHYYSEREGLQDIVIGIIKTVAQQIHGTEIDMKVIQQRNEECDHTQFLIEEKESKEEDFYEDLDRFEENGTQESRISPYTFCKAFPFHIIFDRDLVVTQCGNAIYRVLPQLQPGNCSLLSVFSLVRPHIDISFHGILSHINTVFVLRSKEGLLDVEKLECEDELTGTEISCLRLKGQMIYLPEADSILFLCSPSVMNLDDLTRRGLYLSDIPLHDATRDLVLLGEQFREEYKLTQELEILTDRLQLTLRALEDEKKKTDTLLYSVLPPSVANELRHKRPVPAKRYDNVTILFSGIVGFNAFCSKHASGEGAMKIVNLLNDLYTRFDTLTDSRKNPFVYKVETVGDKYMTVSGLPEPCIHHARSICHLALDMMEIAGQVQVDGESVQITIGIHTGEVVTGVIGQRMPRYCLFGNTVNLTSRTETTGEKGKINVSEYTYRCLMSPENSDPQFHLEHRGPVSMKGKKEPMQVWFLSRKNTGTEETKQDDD
Assay type: cell-based
Excerpt: Chinese hamster ovary (CHO) cells overexpressing soluble guanylate cyclase were generated to test the effect of sGC activators in a cellular context. Human cDNAs for GUCYA3 (RefSeq: NM_000856.3) and GUCYB3 (RefSeq: NM_000857.1) were amplified by PCR from a HUVEC (Human Umbilical Vein Endothelial Cells) cDNA library and cloned into mammalian expression vectors. CHO K1 cells (ATCC CCL-61) were transfected using Lipofectamine 2000 following manufacturer's instructions and stably expressing clones were identified by antibiotic selection. CHO GUCY clone 8E10 was used for subsequent experiments.
Cells were seeded at a density of 3000 cells/well in white 384-well proxyplates (Perkin Elmer) and incubated overnight, then the medium was removed and cells were washed with assay buffer (HBSS, 0.1% BSA, 1 mM IBMX, 20 uM ODQ). sGC activators were serially diluted in DMSO, then diluted in assay buffer prior to adding to cells (10 ul/well, final DMSO concentration 0.5%). Cells were incubated with compounds for 1 h room temperature, then assayed for cGMP production using Cisbio cGMP HTRF kit (62GM2PEC) according to manufacturer's instructions.
The EC50s are calculated based on the amount of cGMP interpolated from the standard curve, using a 4-parameter sigmoidal dose-response.
Compounds of invention are active on sGC activation. Data on Table 1 collected using the assay of Biological Example 1. The minimum EC50 quantification limit of the assay is 0.5 nM, therefore any compound listed as having an EC50 value of 0.5 nM has a actual EC50 of ≤0.5 nM.
`Cc1cc(C2CCN(C(=O)C3CC3)CC2)ccc1OCC1=C(c2cccc(-n3ncc(C(=O)O)c3C(F)(F)F)n2)CCCC1` [Example 1, 1-(6-(2-((4-(1-(Cyclopropanecarbonyl)piperidin-4-yl)-2-methylphenoxy)methyl)cyclohex-1-en-1-yl)pyridin-2-yl)-5-(trifluoromethyl)-1H-pyrazole-4-carboxylic acid] was tested, and the EC50 was ≤ 0.5 nM. With `CCC(=O)N1CCC(c2ccc(OCC3=C(c4cccc(-n5ncc(C(=O)O)c5C(F)(F)F)n4)CCCC3)c(C)c2)CC1` [Example 2-1, 1-(6-(2-((2-methyl-4-(1-propionylpiperidin-4-yl)phenoxy)methyl)cyclohex-1-en-1-yl)pyridin-2-yl)-5-(trifluoromethyl)-1H-pyrazole-4-carboxylic acid] the EC50 was ≤ 0.5 nM. `COC(=O)N1CCC(c2ccc(OCC3=C(c4cccc(-n5ncc(C(=O)O)c5C(F)(F)F)n4)CCCC3)c(C)c2)CC1` [Example 2-2, 1-(6-(2-((4-(1-(methoxycarbonyl)piperidin-4-yl)-2-methylphenoxy)methyl)cyclohex-1-en-1-yl)pyridin-2-yl)-5-(trifluoromethyl)-1H-pyrazole-4-carboxylic acid] was tested, and the EC50 was 1 nM. In the case of `Cc1cc(C2CCN(S(C)(=O)=O)CC2)ccc1OCC1=C(c2cccc(-n3ncc(C(=O)O)c3C(F)(F)F)n2)CCCC1` [Example 2-3, 1-(6-(2-((2-methyl-4-(1-(methylsulfonyl)piperidin-4-yl)phenoxy)methyl)cyclohex-1-en-1-yl)pyridin-2-yl)-5-(trifluoromethyl)-1H-pyrazole-4-carboxylic acid], the EC50 is reported as 1 nM. With `Cc1cc(C2CCN(C(=O)N(C)C)CC2)ccc1OCC1=C(c2cccc(-n3ncc(C(=O)O)c3C(F)(F)F)n2)CCCC1` [Example 2-4, 1-(6-(2-((4-(1-(dimethylcarbamoyl)piperidin-4-yl)-2-methylphenoxy)methyl)cyclohex-1-en-1-yl)pyridin-2-yl)-5-(trifluoromethyl)-1H-pyrazole-4-carboxylic acid] the EC50 was 1 nM. `Cc1cc(C2CCN(C(=O)CO)CC2)ccc1OCC1=C(c2cccc(-n3ncc(C(=O)O)c3C(F)(F)F)n2)CCCC1` [Example 2-5, 1-(6-(2-((4-(1-(2-hydroxyacetyl)piperidin-4-yl)-2-methylphenoxy)methyl)cyclohex-1-en-1-yl)pyridin-2-yl)-5-(trifluoromethyl)-1H-pyrazole-4-carboxylic acid] was tested, and the EC50 was 2.4 nM. With `O=C(O)c1cnn(-c2cccc(C3=C(COc4ccc(C5CCN(C(=O)C6CC6)CC5)cc4)CCCC3)n2)c1C(F)(F)F` [Example 2-6, 1-(6-(2-((4-(1-(cyclopropanecarbonyl)piperidin-4-yl)phenoxy)methyl)cyclohex-1-en-1-yl)pyridin-2-yl)-5-(trifluoromethyl)-1H-pyrazole-4-carboxylic acid] the EC50 was 6.3 nM. Work on `CCN(CC)C(=O)N1CCC(c2ccc(OCC3=C(c4cccc(-n5ncc(C(=O)O)c5C(F)(F)F)n4)CCCC3)c(C)c2)CC1` [Example 2-7, 1-(6-(2-((4-(1-(diethylcarbamoyl)piperidin-4-yl)-2-methylphenoxy)methyl)cyclohex-1-en-1-yl)pyridin-2-yl)-5-(trifluoromethyl)-1H-pyrazole-4-carboxylic acid] yielded an EC50 of 2 nM. In the case of `CCS(=O)(=O)N1CCC(c2ccc(OCC3=C(c4cccc(-n5ncc(C(=O)O)c5C(F)(F)F)n4)CCCC3)c(C)c2)CC1` [Example 2-8, 1-(6-(2-((4-(1-(ethylsulfonyl)piperidin-4-yl)-2-methylphenoxy)methyl)cyclohex-1-en-1-yl)pyridin-2-yl)-5-(trifluoromethyl)-1H-pyrazole-4-carboxylic acid], the EC50 is reported as ≤ 0.5 nM. Work on `Cc1cc(C2CCN(S(=O)(=O)C3CC3)CC2)ccc1OCC1=C(c2cccc(-n3ncc(C(=O)O)c3C(F)(F)F)n2)CCCC1` [Example 2-9, 1-(6-(2-((4-(1-(cyclopropylsulfonyl)piperidin-4-yl)-2-methylphenoxy)methyl)cyclohex-1-en-1-yl)pyridin-2-yl)-5-(trifluoromethyl)-1H-pyrazole-4-carboxylic acid] yielded an EC50 of 1 nM. For `Cc1cc(C2CCN(C(=O)C(C)C)CC2)ccc1OCC1=C(c2cccc(-n3ncc(C(=O)O)c3C(F)(F)F)n2)CCCC1` [Example 2-10, 1-(6-(2-((4-(1-isobutyrylpiperidin-4-yl)-2-methylphenoxy)methyl)cyclohex-1-en-1-yl)pyridin-2-yl)-5-(trifluoromethyl)-1H-pyrazole-4-carboxylic acid], the EC50 was ≤ 0.5 nM. `Cc1cc(C2CCN(C(=O)C3CCC3)CC2)ccc1OCC1=C(c2cccc(-n3ncc(C(=O)O)c3C(F)(F)F)n2)CCCC1` [Example 2-11, 1-(6-(2-((4-(1-(cyclobutanecarbonyl)piperidin-4-yl)-2-methylphenoxy)methyl)cyclohex-1-en-1-yl)pyridin-2-yl)-5-(trifluoromethyl)-1H-pyrazole-4-carboxylic acid] gave an EC50 of 1 nM. Work on `CCNC(=O)N1CCC(c2ccc(OCC3=C(c4cccc(-n5ncc(C(=O)O)c5C(F)(F)F)n4)CCCC3)c(C)c2)CC1` [Example 2-12, 1-(6-(2-((4-(1-(ethylcarbamoyl)piperidin-4-yl)-2-methylphenoxy)methyl)cyclohex-1-en-1-yl)pyridin-2-yl)-5-(trifluoromethyl)-1H-pyrazole-4-carboxylic acid] yielded an EC50 of 14 nM. `Cc1cc(C2CCN(C(=O)OC(C)(C)C)CC2)ccc1OCC1=C(c2cccc(-n3ncc(C(=O)O)c3C(F)(F)F)n2)CCCC1` [Example 2-13, 1-(6-(2-((4-(1-(tert-butoxycarbonyl)piperidin-4-yl)-2-methylphenoxy)methyl)cyclohex-1-en-1-yl)pyridin-2-yl)-5-(trifluoromethyl)-1H-pyrazole-4-carboxylic acid] gave an EC50 of 110 nM. In the case of `Cc1cc(C2CCN(C(=O)[C@H](C)O)CC2)ccc1OCC1=C(c2cccc(-n3ncc(C(=O)O)c3C(F)(F)F)n2)CCCC1` [Example 3, (S)-1-(6-(2-((4-(1-(2-hydroxypropanoyl)piperidin-4-yl)-2-methylphenoxy)methyl)cyclohex-1-en-1-yl)pyridin-2-yl)-5-(trifluoromethyl)-1H-pyrazole-4-carboxylic acid], the EC50 is reported as ≤ 0.5 nM. With `Cc1cc(C2CCN(C(=O)[C@@H](C)O)CC2)ccc1OCC1=C(c2cccc(-n3ncc(C(=O)O)c3C(F)(F)F)n2)CCCC1` [Example 4-1, (R)-1-(6-(2-((4-(1-(2-hydroxypropanoyl)piperidin-4-yl)-2-methylphenoxy)methyl)cyclohex-1-en-1-yl)pyridin-2-yl)-5-(trifluoromethyl)-1H-pyrazole-4-carboxylic acid] the EC50 was 164 nM. `Cc1cc(C2CCN(C(=O)c3ccccn3)CC2)ccc1OCC1=C(c2cccc(-n3ncc(C(=O)O)c3C(F)(F)F)n2)CCCC1` [Example 4-2, 1-(6-(2-((2-methyl-4-(1-picolinoylpiperidin-4-yl)phenoxy)methyl)cyclohex-1-en-1-yl)pyridin-2-yl)-5-(trifluoromethyl)-1H-pyrazole-4-carboxylic acid] showed an EC50 of 8.4 nM. For `Cc1cccc(CN2CCc3cc(OCC4=C(c5cccc(-n6ncc(C(=O)O)c6C(F)(F)F)n5)CCCC4)ccc3C2)n1` [Example 5, 1-(6-(2-(((2-((6-Methylpyridin-2-yl)methyl)-1,2,3,4-tetrahydroisoquinolin-6-yl)oxy)methyl)cyclohex-1-en-1-yl)pyridin-2-yl)-5-(trifluoromethyl)-1H-pyrazole-4-carboxylic acid], the EC50 was 10 nM. For `Cc1cc(C2CCN(CC(F)(F)F)CC2)ccc1OCC1=C(c2cccc(-n3ncc(C(=O)O)c3C(F)(F)F)n2)CCCC1` [Example 6-1, 1-(6-(2-((2-methyl-4-(1-(2,2,2-trifluoroethyl)piperidin-4-yl)phenoxy)methyl)cyclohex-1-en-1-yl)pyridin-2-yl)-5-(trifluoromethyl)-1H-pyrazole-4-carboxylic acid], the EC50 was 2.8 nM. `O=C(O)c1cnn(-c2cccc(C3=C(COc4ccc5c(c4)CCN(Cc4ccc6ccccc6n4)C5)CCCC3)n2)c1C(F)(F)F` [Example 6-2, 1-(6-(2-(((2-(quinolin-2-ylmethyl)-1,2,3,4-tetrahydroisoquinolin-6-yl)oxy)methyl)cyclohex-1-en-1-yl)pyridin-2-yl)-5-(trifluoromethyl)-1H-pyrazole-4-carboxylic acid] gave an EC50 of 16 nM. `Cc1cc(C2CCN(CC3CC3)CC2)ccc1OCC1=C(c2cccc(-n3ncc(C(=O)O)c3C(F)(F)F)n2)CCCC1` [Example 6-3, 1-(6-(2-((4-(1-(Cyclopropylmethyl)piperidin-4-yl)-2-methylphenoxy)methyl)cyclohex-1-en-1-yl)pyridin-2-yl)-5-(trifluoromethyl)-1H-pyrazole-4-carboxylic acid] gave an EC50 of 374 nM. Molecule `CCc1cc(OCC2=C(c3cccc(-n4ncc(C(=O)O)c4C(F)(F)F)n3)CCCC2)ccc1C1CCN(C(=O)C2CC2)CC1` [Example 7, 1-(6-(2-((4-(1-(Cyclopropanecarbonyl)piperidin-4-yl)-3-ethylphenoxy)methyl)cyclohex-1-en-1-yl)pyridin-2-yl)-5-(trifluoromethyl)-1H-pyrazole-4-carboxylic acid] has an EC50 of 1 nM.
